According to PubChem BioAssay AID1845217 (Molecular Pharmacology Branch, DTP, NCI, 2023):
pIC50: −log10 of the molar value.

System: VA-ES-BJ tumor spheroid viability
Test: Anticancer human tumor VA-ES-BJ cell line growth inhibition;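 note: spheroids exposed to compounds for seven days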;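 for viability, T/C: percent of DMSO vehicle control viability so 100% = untreated growth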
Conditions: spheroids with HUVEC and MSC; for pIC50: curve of first compound; for viability, T/C: stronger effect = lower value
Summary of the method: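 Complex tumor spheroids combined malignant cells with endothelial cells and mesenchymal stem cells. DNA-damaging drugs and DNA repair inhibitors were tested alone and in combination, at half-log dilutions down from clinical Cmax (top 10 microM if Cmax unknown), 0.25% DMSO final.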

[1] = second compound 0.003 µM, first compound 0.0316 µM
[2] = second compound 0.003 µM, first compound 0.1 µM
[3] = second compound 0.003 µM, first compound 0.316 µM
[4] = second compound 0.003 µM, first compound 1 µM
[5] = second compound 0.003 µM, first compound 3.16 µM
[6] = second compound 0.003 µM, first compound 10 µM
[7] = second compound 0.00949 µM, first compound 0.0316 µM
[8] = second compound 0.00949 µM, first compound 0.1 µM
[9] = second compound 0.00949 µM, first compound 0.316 µM
[10] = second compound 0.00949 µM, first compound 1 µM
[11] = second compound 0.00949 µM, first compound 3.16 µM
[12] = second compound 0.00949 µM, first compound 10 µM
[13] = second compound 0.03 µM, first compound 0.0316 µM
[14] = second compound 0.03 µM, first compound 0.1 µM
[15] = second compound 0.03 µM, first compound 0.316 µM
[16] = second compound 0.03 µM, first compound 1 µM
[17] = second compound 0.03 µM, first compound 3.16 µM
[18] = second compound 0.03 µM, first compound 10 µM
[19] = second compound 0.0949 µM, first compound 0.0316 µM
[20] = second compound 0.0949 µM, first compound 0.1 µM
[21] = second compound 0.0949 µM, first compound 0.316 µM
[22] = second compound 0.0949 µM, first compound 1 µM
[23] = second compound 0.0949 µM, first compound 3.16 µM
[24] = second compound 0.0949 µM, first compound 10 µM
[25] = second compound 0.3 µM, first compound 0.0316 µM
[26] = second compound 0.3 µM, first compound 0.1 µM
[27] = second compound 0.3 µM, first compound 0.316 µM
[28] = second compound 0.3 µM, first compound 1 µM
[29] = second compound 0.3 µM, first compound 3.16 µM
[30] = second compound 0.3 µM, first compound 10 µM

SMILES	pIC50 (second compound 0.003 µM)	pIC50 (second compound 0.00949 µM)	pIC50 (second compound 0.03 µM)	pIC50 (second compound 0.0949 µM)	pIC50 (second compound 0.3 µM)	viability, T/C [1] [%]	viability, T/C [2] [%]	viability, T/C [3] [%]	viability, T/C [4] [%]	viability, T/C [5] [%]	viability, T/C [6] [%]	viability, T/C [7] [%]	viability, T/C [8] [%]	viability, T/C [9] [%]	viability, T/C [10] [%]	viability, T/C [11] [%]	viability, T/C [12] [%]	viability, T/C [13] [%]	viability, T/C [14] [%]	viability, T/C [15] [%]	other results
CC1COCCN1c1cc(-c2ccnn2C)c2ccnc(-c3ccn[nH]3)c2n1 (stereo not given) + CC[C@@]1(O)C(=O)OCc2c1cc1n(c2=O)Cc2cc3c(CN(C)C)c(O)ccc3nc2-1	7.25	> 7.50	> 7.50	> 7.50	> 7.50	63.9	35.5	22.4	12.1	6.47	6.01	40.4	27.1	21.2	8.86	5.91	5.08	22.6	16.9	12.8	viability, T/C [16]: 6.37%; viability, T/C [17]: 4.95%; viability, T/C [18]: 4.49%; viability, T/C [19]: 8.54%; viability, T/C [20]: 7.09%; viability, T/C [21]: 6.46%; viability, T/C [22]: 5.74%; viability, T/C [23]: 4.46%; viability, T/C [24]: 4.49%; viability, T/C [25]: 6.2%; viability, T/C [26]: 5.86%; viability, T/C [27]: 4.85%; viability, T/C [28]: 4.65%; viability, T/C [29]: 4.8%; viability, T/C [30]: 4.19%
COc1cc(C)[nH]c(=O)c1CN1CCc2c(Cl)cc(C(OC)C3COC3)c(Cl)c2C1=O (stereo not given) + CC[C@@]1(O)C(=O)OCc2c1cc1n(c2=O)Cc2cc3c(CN(C)C)c(O)ccc3nc2-1	< 5.00	5.29	> 7.50	> 7.50	> 7.50	99.6	88.8	70.9	64.2	54.9	52.5	93.2	88.8	74.5	65.5	53	45.4	50.1	47.5	47.3	viability, T/C [16]: 46.9%; viability, T/C [17]: 42.3%; viability, T/C [18]: 38.4%; viability, T/C [19]: 8.85%; viability, T/C [20]: 9.47%; viability, T/C [21]: 8.43%; viability, T/C [22]: 8.57%; viability, T/C [23]: 8.44%; viability, T/C [24]: 9.48%; viability, T/C [25]: 6.48%; viability, T/C [26]: 6.48%; viability, T/C [27]: 6.57%; viability, T/C [28]: 6.59%; viability, T/C [29]: 5.96%; viability, T/C [30]: 6.06%
Cc1cc(C)c(CNC(=O)c2cc(-c3ccc(CN4CCOCC4)cc3)cc3c2cnn3C2CCCC2)c(=O)[nH]1 + CC[C@@]1(O)C(=O)OCc2c1cc1n(c2=O)Cc2cc3c(CN(C)C)c(O)ccc3nc2-1	< 5.00	< 5.00	> 7.50	> 7.50	> 7.50	92.3	98	95	98.9	103	94.8	74.2	84	93.5	90	86.5	62.1	37.3	39	37.3	viability, T/C [16]: 36.1%; viability, T/C [17]: 38.2%; viability, T/C [18]: 44%; viability, T/C [19]: 5.21%; viability, T/C [20]: 5.14%; viability, T/C [21]: 5.02%; viability, T/C [22]: 5.85%; viability, T/C [23]: 5.97%; viability, T/C [24]: 6.03%; viability, T/C [25]: 5.75%; viability, T/C [26]: 5.52%; viability, T/C [27]: 4.6%; viability, T/C [28]: 5.28%; viability, T/C [29]: 5.46%; viability, T/C [30]: 5.71%
[2H]c1nc(C)nc([2H])c1-c1cc(NC[C@@H](C)c2cccc3c(C(=O)NC)ccnc23)ncn1 + CC[C@@]1(O)C(=O)OCc2c1cc1n(c2=O)Cc2cc3c(CN(C)C)c(O)ccc3nc2-1	< 5.00	< 5.00	6.69	> 7.50	> 7.50	101	95.9	99.5	100	105	100	90.1	90.6	90.6	92.4	87.3	81.6	53.3	48.2	49.9	viability, T/C [16]: 50.2%; viability, T/C [17]: 46.4%; viability, T/C [18]: 46%; viability, T/C [19]: 9.76%; viability, T/C [20]: 8.96%; viability, T/C [21]: 7.7%; viability, T/C [22]: 8.02%; viability, T/C [23]: 8.96%; viability, T/C [24]: 8.01%; viability, T/C [25]: 6.31%; viability, T/C [26]: 6.82%; viability, T/C [27]: 5.89%; viability, T/C [28]: 5.88%; viability, T/C [29]: 5.82%; viability, T/C [30]: 5.63%
